Assay results from patent EP4603105A1, “PHARMACEUTICAL COMPOSITION CONTAINING CYCLIC COMPOUND HAVING SELECTIVE KRAS INHIBITORY EFFECT AGAINST HRAS AND NRAS” (CHUGAI SEIYAKU KABUSHIKI KAISHA, priority 2022, dated 2024).
Where two headings read alike, the source gives them in different places.

Experiments:
[1] = target: GDP-bound NRAS wild-type protein (Homo sapiens, UniProt P01111); experiment: Binding to NRAS by surface plasmon resonance (SPR), KD and KD ratio to KRAS
Outline: (§1)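 Affinity is measured by surface plasmon resonance at 30°C against captured, GDP-loaded RAS carrying a biotinylated Avi tag. Compounds are titrated by single-cycle kinetics, and KD comes from a 1:1 fit.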

HRAS wild-type protein = HRAS wild-type protein (Homo sapiens, UniProt P01112); experiment: Binding to HRAS by surface plasmon resonance (SPR), KD and KD ratio to KRAS
Chain of HRAS wild-type protein (P01112 whole entry): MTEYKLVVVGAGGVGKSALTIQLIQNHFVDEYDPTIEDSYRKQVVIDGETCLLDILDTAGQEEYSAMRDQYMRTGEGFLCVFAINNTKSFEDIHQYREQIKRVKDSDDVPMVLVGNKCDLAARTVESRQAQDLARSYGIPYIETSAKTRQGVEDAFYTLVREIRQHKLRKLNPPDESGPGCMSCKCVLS
Outline: as §1

[2] = system: human lung cancer strain NCI-H441; type: cell-based
Outline: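 Readout: […] after the ATP-based reagent. Compound: serial dilutions in dimethyl sulfoxide.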

[3] = ratio of the KD value with respect to GDP-bound NRAS wild-type protein to the KD value with respect to KRAS
[4] = ratio of the KD value with respect to HRAS wild-type protein to the KD value with respect to KRAS
[5] = ratio of KD for GDP-bound NRAS wild-type protein to KD for KRAS
[6] = ratio of KD for HRAS wild-type protein to KD for KRAS

Chain of GDP-bound NRAS wild-type protein (P01111 whole entry): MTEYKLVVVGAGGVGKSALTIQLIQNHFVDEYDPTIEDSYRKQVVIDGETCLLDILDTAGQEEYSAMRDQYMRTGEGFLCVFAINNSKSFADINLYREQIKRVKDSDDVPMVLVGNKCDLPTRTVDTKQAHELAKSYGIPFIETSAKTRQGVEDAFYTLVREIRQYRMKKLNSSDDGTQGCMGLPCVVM

| Structure (SMILES) | IC50 [2] | NRAS /KRAS [1, 5] | HRAS /KRAS (HRAS wild-type protein; [6]) | further results |
| --- | --- | --- | --- | --- |
| CCO[C@@H]1C[C@H]2C(=O)NC3(CCC(F)(F)CC3)C(=O)N(C)[C@@H](C3CCCC3)C(=O)N(C)[C@H](C(=O)N3CCOCC3)CC(=O)N(C)[C@@H](CC(C)C)C(=O)N[C@@H]([C@@H](C)CC)C(=O)N(C)CC(=O)N(C)[C@H]3CCCCCN(C3=O)[C@@H](Cc3ccc(C(F)(F)F)cc3)C(=O)N(C)CC(=O)N[C@@H](CCc3cc(F)c(C(F)(F)F)c(F)c3)C(=O)N2C1 [PP0728] | 252 nM | – | – | NRAS /KRAS [1, 3]: B (a compound having 3 or more and less than 10 is denoted as B); HRAS /KRAS (HRAS wild-type protein; [4]): B (a compound having 3 or more and less than 10 is denoted as B) |
| CCC[C@H]1C(=O)N[C@@H]([C@@H](C)CC)C(=O)N(C)CC(=O)N(C)[C@H]2C/C=C\CCN(C2=O)[C@@H](Cc2ccc(C(F)(F)F)cc2)C(=O)N(C)CC(=O)N[C@@H](CCc2ccc(CC)c(F)c2)C(=O)N2C[C@H](OCC)C[C@H]2C(=O)NC2(CC(C)(C)C2)C(=O)N(C)[C@@H](C2CCCC2)C(=O)N(C)[C@H](C(=O)N(C)C)CC(=O)N1C [PP2856] | – | A (a compound having 10 or more and less than 20 is denoted as A) | A (a compound having 10 or more and less than 20 is denoted as A) | IC50 ([2]; NCI-H441 cells, 4 days, CellTiter-Glo, read-out: NCl-H441 IC50): 33.5 nM |
| CCO[C@@H]1C[C@H]2C(=O)NC3(CCC3)C(=O)N(C)[C@@H](C(CC)CC)C(=O)N(C)[C@H](C(=O)N(C)CCOC)CC(=O)N(C)[C@@H](CC)C(=O)N[C@@H]([C@@H](C)CC)C(=O)N(C)CC(=O)N(C)[C@H]3C/C=C\CCN(C3=O)[C@@H](Cc3ccc(C(F)(F)F)cc3)C(=O)N(C)CC(=O)N[C@@H](CCc3cc(F)c(C(F)(F)F)c(F)c3)C(=O)N2C1 [PP1330] | 79.6 nM | – | – | NRAS /KRAS ([1]; ratio of KD with respect to GDP-bound NRAS wild-type protein to KD with respect to KRAS): AA (a compound having 20 or more is denoted as AA); HRAS /KRAS (HRAS wild-type protein; ratio of KD with respect to HRAS wild-type protein to KD with respect to KRAS): A (a compound having 10 or more and less than 20 is denoted as A) |

More lines, main results first:

| IC50 [2] | Structure (SMILES) | NRAS /KRAS [1, 5] | HRAS /KRAS (HRAS wild-type protein; [6]) | further results |
| --- | --- | --- | --- | --- |
| 2.1 nM | CCO[C@@H]1C[C@H]2C(=O)NC3(CC(C)(C)C3)C(=O)N(C)[C@@H](C(CC)CC)C(=O)N(C)[C@H](C(=O)N(C)C)CC(=O)N(C)[C@H]3CCCCCCc4ccc(cc4)C[C@@H](C(=O)N(C)CC(=O)N[C@@H](CCc4ccc(C(F)(F)F)c(OC)c4)C(=O)N2C1)N1CC/C=C\C[C@@H](C1=O)N(C)C(=O)CN(C)C(=O)[C@H]([C@@H](C)CC)NC3=O [PP3032] | AA (a compound having 20 or more is denoted as AA) | A (a compound having 10 or more and less than 20 is denoted as A) | – |
| 12.3 nM | CCC[C@H]1C(=O)N[C@@H]([C@@H](C)CC)C(=O)N(C)CC(=O)N(C)[C@H]2C/C=C\CCN(C2=O)[C@@H](Cc2ccc(C(F)(F)F)cc2)C(=O)N(C)CC(=O)N[C@@H](CCc2cc(F)c(C(F)(F)F)c(F)c2)C(=O)N(C)[C@@H](COC)C(=O)NC2(CC(C)(C)C2)C(=O)N(C)[C@@H](C2CCCC2)C(=O)N(C)[C@H](C(=O)N(C)C)CC(=O)N1C [PP1936] | – | – | NRAS /KRAS [1, 3]: AA (a compound having 20 or more is denoted as AA); HRAS /KRAS (HRAS wild-type protein; [4]): A (a compound having 10 or more and less than 20 is denoted as A) |
| 21.8 nM | CC[C@H](C)[C@@H]1NC(=O)[C@H](CC(C)C)N(C)C(=O)C[C@@H](C(=O)N2CCOCC2)N(C)C(=O)[C@H](C2CCCC2)N(C)C(=O)C2(CCC2)NC(=O)[C@@H]2[C@@H](OC)CCN2C(=O)[C@H](CCc2cc(F)c(C(F)(F)F)c(F)c2)NC(=O)CN(C)C(=O)[C@H](Cc2ccc(C(F)(F)F)cc2)N2CCCC[C@@H](C2=O)N(C)C(=O)CN(C)C1=O [PP1075] | B (a compound having 3 or more and less than 10 is denoted as B) | B (a compound having 3 or more and less than 10 is denoted as B) | – |
| 16.9 nM | CCO[C@@H]1C[C@H]2C(=O)NC3(CCC3)C(=O)N(C)[C@@H](C3CCCC3)C(=O)N(C)[C@H](C(=O)N(C)CC)CC(=O)N(C)[C@@H](CC3CC3)C(=O)N[C@@H]([C@@H](C)CC)C(=O)N(C)CC(=O)N(C)[C@H]3C/C=C\CCN(C3=O)[C@@H](Cc3ccc(C)cc3)C(=O)N(C)CC(=O)N[C@@H](CCc3ccc(C(F)(F)F)c(OC)c3)C(=O)N2C1 [PP1879] | – | – | NRAS /KRAS ([1]; ratio of KD value for GDP-bound NRAS wild-type protein to KD value for KRAS (SPR)): A (a compound having 10 or more and less than 20 is denoted as A); HRAS /KRAS (HRAS wild-type protein; ratio of KD value for HRAS wild-type protein to KD value for KRAS (SPR)): B (a compound having 3 or more and less than 10 is denoted as B) |
